Read-outs that look alike come from different tables or passages of the source.
What was measured:
[1] = logP by reversed-phase HPLC (EEC Directive 79/831 Annex V.A8); assay type: physicochemical; settings: for chromatographic logP: reversed-phase C18 HPLC column
Experimental: The logP values were determined in accordance with EEC Directive 79/831 Annex V.A8 by HPLC (High Performance Liquid Chromatography) using reversed-phase columns (C 18) by the following methods:
^[a] The LC-MS determination in the acidic range was effected at pH 2.7 with 0.1% aqueous formic acid and acetonitrile (contains 0.1% formic acid) as eluents; linear gradient from 10% acetonitrile to 95% acetonitrile. Called logP (HCOOH) in the table.
^[b] LC-MS determination in the neutral range was effected at pH 7.8 with 0.001 molar aqueous ammonium hydrogencarbonate solution and acetonitrile as eluents; linear gradient from 10% acetonitrile to 95% acetonitrile. Called logP (neutral) in the table.
Calibration was effected with unbranched alkan-2-ones (having 3 to 16 carbon atoms) with known logP values (logP values determined on the basis of the retention times by linear interpolation between two successive alkanones).

Tetranychus urticae [2] = test: Tetranychus urticae spray test, OP-resistant (bean leaf discs); assay type: in vivo; settings: application rate 500 g/ha, after 6 days
Experimental: 4. Tetranychus urticae—Spray Test, OP-Resistant Solvent: 78.0 parts by weight of acetone • • 1.5 parts by weight of dimethylformamide Emulsifier: alkylaryl polyglycol ether
(§1) To produce a suitable preparation of active compound, 1 part by weight of active compound is dissolved using the stated parts by weight of solvent and made up with water containing an emulsifier concentration of 1000 ppm until the desired concentration is attained. To produce further test concentrations, the preparation is diluted with emulsifier-containing water.
Discs of bean leaves (Phaseolus vulgaris) infested with all stages of the greenhouse red spider mite (Tetranychus urticae) are sprayed with an active compound preparation of the desired concentration.
After 6 days, the efficacy in % is determined. 100% means that all the spider mites have been killed; 0% means that none of the spider mites have been killed.

Tetranychus urticae [3] = test: Tetranychus urticae spray test, OP-resistant (bean plants); assay type: in vivo; settings: application rate 20 ppm, after 7 days
Experimental: 5. Tetranychus urticae-Spray Test, OP-Resistant Solvent: 7 parts by weight of dimethylformamide Emulsifier: alkylaryl polyglycol ether
as §1, with “water. If the addition of ammonium salts or/and penetrants is required, these are each added in a concentration of 1000 ppm to the preparation solution.” for “water.”
Bean plants (Phaseolus vulgaris) heavily infested by all stages of the greenhouse red spider mite (Tetranychus urticae) are sprayed with an active compound preparation of the desired concentration.
After 7 days, the efficacy in % is determined. 100% means that all the spider mites have been killed; 0% means that none of the spider mites have been killed.

Tetranychus urticae [4] = test: Tetranychus urticae drench test, OP-resistant; assay type: in vivo; settings: application rate 4 ppm, after 14 days, bean plants in soil
Experimental: 6. Tetranychus urticae—Drench Test, OP-Resistant Solvent: 7 parts by weight of dimethylformamide Emulsifier: 2 parts by weight of alkylaryl polyglycol ether
To produce a suitable preparation of active compound, 1 part by weight of active compound is mixed with the stated amounts of solvent and emulsifier, and the concentrate is diluted with water to the desired concentration, where the volume of soil to be drenched has to be taken into account. Here, it has to be made sure that a concentration of 40 ppm of emulsifier in the soil is not exceeded. To produce further test concentrations, the mixture is diluted with water.
Bean plants (Phaseolus vulgaris) in pots filled with soil, which plants are heavily infested by all stages of the greenhouse red spider mite (Tetranychus urticae), are watered with an active compound preparation of the desired concentration.
After 14 days, the efficacy in % is assessed. 100% means that all spider mites have been killed; 0% means that none of the spider mites have been killed.

Boophilus microplus = Boophilus microplus injection test; assay type: in vivo; settings: application rate, injection into engorged adult female cattle ticks, after 7 days
Experimental: 1. Boophilus microplus—Injection Test Solvent: dimethyl sulphoxide
To produce a suitable preparation of active compound, 10 mg of active compound are mixed with 0.5 ml of solvent and the concentrate is diluted with solvent to the desired concentration.
1 μl of the active compound solution is injected into the abdomen of 5 engorged adult female cattle ticks (Boophilus microplus). The animals are transferred into dishes and kept in a climate-controlled room.
Efficacy is assessed after 7 days by laying of fertile eggs. Eggs which are not visibly fertile are stored in a climate-controlled cabinet until the larvae hatch after about 42 days. An efficacy of 100% means that none of the ticks has laid any fertile eggs; 0% means that all the eggs are fertile.

Phaedon cochleariae = Phaedon cochleariae spray test; assay type: in vivo; settings: application rate 500 g/ha, after 7 days, Chinese cabbage leaf discs
Experimental: 3. Phaedon cochleariae—Spray Test Solvent: 78.0 parts by weight of acetone • • 1.5 parts by weight of dimethylformamide Emulsifier: alkylaryl polyglycol ether
as §1
After 7 days, the efficacy in % is determined. 100% means that all the beetle larvae have been killed; 0% means that no beetle larvae have been killed.

Meloidogyne incognita = Meloidogyne incognita test (sand, lettuce, solvent acetone); assay type: in vivo; settings: application rate 20 ppm, after 14 days, lettuce in sand
Experimental: 2. Meloidogyne incognita Test Solvent: 125.0 parts by weight of acetone To produce a suitable preparation of active compound, 1 part by weight of active compound is mixed with the stated amount of solvent and the concentrate is diluted with water to the desired concentration. Vessels are filled with sand, active compound solution, an egg/larvae suspension of the southern root-knot nematode (Meloidogyne incognita) and lettuce seeds. The lettuce seeds germinate and the plants develop. The galls develop on the roots. After 14 days, the nematicidal efficacy in % is determined by the formation of galls. 100% means that no galls were found; 0% means that the number of galls on the treated plants corresponds to the untreated control.

[5] = acidic range, pH 2.7, 0.1% aqueous formic acid/acetonitrile, read-out: logP (HCOOH) = logP[a]
[6] = acidic range, pH 2.7, 0.1% aqueous formic acid/acetonitrile
[7] = neutral range, pH 7.8, 0.001 molar aqueous ammonium hydrogencarbonate/acetonitrile
[8] = neutral range, pH 7.8, 0.001 molar aqueous ammonium hydrogencarbonate/acetonitrile, read-out: logP (neutral) = logP[b]

SMILES | chromatographic logP [1, 5] | logP (HCOOH) = logP[a] [1, 6] | logP (neutral) = logP[b] [1, 7] | efficacy (spider mites killed) (Tetranychus urticae [2]) [%] | also measured
CCn1c(-c2cc(SCC(F)(F)F)c(C)cc2F)cc(=O)n(CC)c1=O [Example I-7] | – | 3.54 | 3.47 | 90 | efficacy (spider mites killed) (Tetranychus urticae [3]): 100%
CCn1c(-c2cc([S+]([O-])CC(F)(F)F)c(C)cc2F)cc(=O)n(CC)c1=O (stereo not drawn) [Example I-10] | – | 2.37 | 2.28 | 100 | efficacy (spider mites killed) (Tetranychus urticae [3]): 100%; efficacy (spider mites killed) (Tetranychus urticae [4]): 95%; efficacy (no fertile eggs laid) (Boophilus microplus): 100%
Cc1cc(C)c(-c2cc(=O)n(C)c(=O)n2C)cc1SCC(F)(F)F [Example I-4] | 2.98 | – | – | – | –
CCn1c(=O)[nH]c(-c2cc(SCC(F)(F)F)c(C)cc2F)c(F)c1=O [Example I-8] | – | 2.72 | – | – | –
CCn1c(=O)c(F)c(-c2cc([S+]([O-])CC(F)(F)F)c(C)cc2F)n(C)c1=O (stereo not drawn) [Example I-11] | – | 2.20 | 2.19 | 100 | efficacy (no fertile eggs laid) (Boophilus microplus): 100%
Cc1cc(F)c(-c2cc(=O)n(C(C)C)c(=O)n2C(C)C)cc1[S+]([O-])CC(F)(F)F (stereo not drawn) [Example I-9] | – | 3.19 | 3.10 | 100 | efficacy (no fertile eggs laid) (Boophilus microplus): 100%
Cc1cc(C)c([S+]([O-])CC(F)(F)F)cc1-c1cc(=O)n(C)c(=O)n1C (stereo not drawn) [Example I-12] | – | 1.89 | 1.82 | 100 | efficacy (no fertile eggs laid) (Boophilus microplus): 100%
Cc1cc(F)c(-c2cc(=O)n(C)c(=O)n2C)cc1SCC(F)(F)F [Example I-2, 6-{2-Fluoro-4-methyl-5-[(2,2,2-trifluoroethyl)sulphanyl]phenyl}-1,3-dimethylpyrimidine-2,4(1H,3H)-dione] | 2.86 | – | – | 100 | nematicidal efficacy (formation of galls) (Meloidogyne incognita): 90%; chromatographic logP [1, 8]: 2.74; efficacy (beetle larvae killed) (Phaedon cochleariae): 83%; efficacy (spider mites killed) (Tetranychus urticae [3]): 100%; efficacy (spider mites killed) (Tetranychus urticae [4]): 99%; efficacy (no fertile eggs laid) (Boophilus microplus): 100%
CCCn1c(-c2cc(SCC(F)(F)F)c(C)cc2F)cc(=O)n(CCC)c1=O [Example I-5] | – | 4.26 | 4.16 | 90 | –
Cc1cc(F)c(-c2cc(=O)n(C(C)C)c(=O)n2C(C)C)cc1SCC(F)(F)F [Example I-6] | – | 4.52 | 4.42 | 100 | –
CCn1c(=O)c(F)c(-c2cc(SCC(F)(F)F)c(C)cc2F)n(C)c1=O [Example I-3, 3-Ethyl-5-fluoro-6-{2-fluoro-4-methyl-5-[(2,2,2-trifluoroethyl)-sulphanyl]phenyl}-1-methylpyrimidine-2,4(1H,3H)-dione] | 3.32 | – | – | – | chromatographic logP [1, 8]: 3.42

Now from value to compound, other results behind:

chromatographic logP [1, 5] | logP (HCOOH) = logP[a] [1, 6] | logP (neutral) = logP[b] [1, 7] | SMILES | efficacy (spider mites killed) (Tetranychus urticae [2]) [%] | also measured
3.15 | – | – | Cc1cc(F)c(-c2c(Cl)c(=O)n(C)c(=O)n2C)cc1SCC(F)(F)F [Example I-16, 5-Chloro-6-{2-fluoro-4-methyl-5-[(2,2,2-trifluoroethyl)sulphanyl]phenyl}-1,3-dimethylpyrimidine-2,4(1H,3H)-dione] | 90 | –
2.34 | – | – | Cc1cc(F)c(-c2cc(=O)[nH]c(=S)[nH]2)cc1SCC(F)(F)F [Example I-14, 6-{2-Fluoro-4-methyl-5-[(2,2,2-trifluoroethyl)sulphanyl]phenyl}-2-thioxo-2,3-dihydropyrimidin-4(1H)-one] | – | chromatographic logP [1, 8]: 1.54
1.59 | – | – | CCn1c(=O)c(C)c(Cl)n(C)c1=O [II-02, 6-chloro-3-ethyl-1,5-dimethylpyrimidine-2,4(1H,3H)-dione] | – | –
3.57 | – | – | CCOC(=O)CC(=O)c1cc(SCC(F)(F)F)c(C)cc1F [VI-01, ethyl 3-{2-fluoro-4-methyl-5-[(2,2,2-trifluoroethyl)sulphanyl]phenyl}-3-oxopropanoate] | – | chromatographic logP [1, 8]: 3.59
1.31 | – | – | CCn1c(=O)c(F)c(Cl)n(C)c1=O [II-01, 6-chloro-3-ethyl-5-fluoro-1-methylpyrimidine-2,4(1H,3H)-dione] | – | –
– | 4.34 | – | Cc1cc(F)c(-c2cc(=O)n(CC(F)(F)F)c(=S)n2C)cc1SCC(F)(F)F [Example I-15] | 90 | efficacy (beetle larvae killed) (Phaedon cochleariae): 100%; efficacy (spider mites killed) (Tetranychus urticae [3]): 100%; efficacy (spider mites killed) (Tetranychus urticae [4]): 100%
2.38 | – | – | Cc1cc(F)c(-c2cc(=O)n(C)c(=O)[nH]2)cc1SCC(F)(F)F [Example I-13, 6-{2-Fluoro-4-methyl-5-[(2,2,2-trifluoroethyl)sulphanyl]phenyl}-3-methylpyrimidine-2,4(1H,3H)-dione] | – | chromatographic logP [1, 8]: 2.25
– | 1.41 | 1.43 | Cc1cc(F)c(-c2cc(=O)n(C)c(=O)[nH]2)cc1[S+]([O-])CC(F)(F)F (stereo not drawn) [Example I-17] | – | –

— US20170327471A1, “Aryl sulphide and aryl sulphoxide derivatives having C-C-attached uracils as pesticides” (BAYER CROPSCIENCE AKTIENGESELLSCHAFT, priority 2014, published 2017)
